From PubChem BioAssay AID190 (DTP/NCI, 2004)
Several values for one entry are separate records, joined by “and”; a condition that tells them apart may be missing. Equal values may be shown once. Inconclusive results and toxic doses are left out.

Tested on: AKR/Lw mice, AKR lymphoma ip, median survival T/C
Assay: NCI In Vivo Anticancer Drug Screen. Data for tumor model Lymphoma AKR (Transplanted) (intraperitoneal) in AKR/Lw mice
Conditions: endpoint: median survival time, higher = longer survival
Procedure: The antitumor activity of compounds was measured in mice bearing transplantable tumors. Survival or tumor size were measured and the results are expressed as the measurement made in the treated group (T) divided by the measurement made in the vehicle treated control group (C). The tumor model used in this assay is Lymphoma AKR (Transplanted) (intraperitoneal) in AKR/Lw mice

Structure (SMILES): O=NN(CCCl)C(=O)NCCCl
- T/C (dose: 0.12 mg/kg/injection, schedule: Q01DX009 (ip), vehicle: saline): 105 % of control
- T/C (dose: 0.25 mg/kg/injection, schedule: Q01DX009 (ip), vehicle: saline): 87 % of control and 107 % of control
- T/C (dose: 0.25 mg/kg/injection, schedule: Q04DX003 (ip), vehicle: saline): 90 % of control and 97 % of control
- T/C (dose: 0.5 mg/kg/injection, schedule: Q04DX004 (ip), vehicle: saline): 96 % of control
- T/C (dose: 1.0 mg/kg/injection, schedule: Q04DX004 (ip), vehicle: saline): 108 % of control and 112 % of control
- T/C (dose: 1.5 mg/kg/injection, schedule: Q04DX003 (ip), vehicle: saline): 107 % of control
- T/C (dose: 1.5 mg/kg/injection, schedule: Q07DX003 (ip), vehicle: saline): 87 % of control and 118 % of control
- T/C (dose: 2.5 mg/kg/injection, schedule: Q04DX003 (ip), vehicle: saline): 93 % of control
- T/C (dose: 3.0 mg/kg/injection, schedule: Q01DX001 (ip), vehicle: saline): 100 % of control and 114 % of control
- T/C (dose: 3.0 mg/kg/injection, schedule: Q01DX009 (ip), vehicle: saline): 87 % of control
- T/C (dose: 3.0 mg/kg/injection, schedule: Q04DX003 (ip), vehicle: saline): 86 % of control
- T/C (dose: 3.0 mg/kg/injection, schedule: Q07DX003 (ip), vehicle: saline): 109 % of control and 121 % of control
- T/C (dose: 3.13 mg/kg/injection, schedule: Q04DX003 (ip), vehicle: water): 98 % of control
- T/C (dose: 3.75 mg/kg/injection, schedule: Q01DX001 (ip), vehicle: saline): 117 % of control
- T/C (dose: 4.0 mg/kg/injection, schedule: Q04DX004 (ip), vehicle: saline): 153 % of control
- T/C (dose: 5.0 mg/kg/injection, schedule: Q01DX001 (ip), vehicle: saline): 93 % of control and 100 % of control and 103 % of control
- T/C (dose: 5.0 mg/kg/injection, schedule: Q01DX009 (ip), vehicle: saline): 333 % of control
- T/C (dose: 5.0 mg/kg/injection, schedule: Q04DX003 (ip), vehicle: saline): 103 % of control
- T/C (dose: 5.0 mg/kg/injection, schedule: Q10DX004 (ip), vehicle: saline): 103 % of control
- T/C (dose: 6.0 mg/kg/injection, schedule: Q04DX003 (ip), vehicle: saline): 97 % of control
- T/C (dose: 6.0 mg/kg/injection, schedule: Q07DX003 (ip), vehicle: saline): 100 % of control and 118 % of control
- T/C (dose: 6.2 mg/kg/injection, schedule: Q01DX001 (ip), vehicle: saline): 106 % of control
- T/C (dose: 6.25 mg/kg/injection, schedule: Q04DX003 (ip), vehicle: water): 124 % of control
- T/C (dose: 7.5 mg/kg/injection, schedule: Q01DX001 (ip), vehicle: saline): 118 % of control
- T/C (dose: 8.0 mg/kg/injection, schedule: Q04DX004 (ip), vehicle: saline): 171 % of control
- T/C (dose: 10.0 mg/kg/injection, schedule: Q01DX009 (ip), vehicle: saline): 97 % of control
- T/C (dose: 10.0 mg/kg/injection, schedule: Q04DX003 (ip), vehicle: saline): 106 % of control
- T/C (dose: 10.0 mg/kg/injection, schedule: Q10DX004 (ip), vehicle: saline): 111 % of control
- T/C (dose: 10.0 mg/kg/injection, schedule: Q14DX003 (ip), vehicle: saline): 123 % of control
- T/C (dose: 12.5 mg/kg/injection, schedule: Q01DX001 (ip), vehicle: saline): 118 % of control
- T/C (dose: 12.5 mg/kg/injection, schedule: Q04DX003 (ip), vehicle: water): 88 % of control
- T/C (dose: 15.0 mg/kg/injection, schedule: Q10DX004 (ip), vehicle: saline): 113 % of control
- T/C (dose: 15.0 mg/kg/injection, schedule: Q14DX003 (ip), vehicle: saline): 98 % of control
- T/C (dose: 16.0 mg/kg/injection, schedule: Q01DX009 (ip), vehicle: saline): 97 % of control
- T/C (dose: 16.0 mg/kg/injection, schedule: Q04DX004 (ip), vehicle: saline): 168 % of control
- T/C (dose: 20.0 mg/kg/injection, schedule: Q01DX009 (ip), vehicle: saline): 97 % of control
- T/C (dose: 20.0 mg/kg/injection, schedule: Q10DX004 (ip), vehicle: saline): 101 % of control
- T/C (dose: 20.0 mg/kg/injection, schedule: Q14DX003 (ip), vehicle: saline): 115 % of control
- T/C (dose: 24.0 mg/kg/injection, schedule: Q01DX001 (ip), vehicle: saline): 86 % of control
- T/C (dose: 25.0 mg/kg/injection, schedule: Q04DX003 (ip), vehicle: water): 108 % of control
- T/C (dose: 32.0 mg/kg/injection, schedule: Q04DX004 (ip), vehicle: saline): 103 % of control
- T/C (dose: 45.0 mg/kg/injection, schedule: Q01DX001 (ip), vehicle: saline): 54 % of control and 95 % of control
- T/C (dose: 60.0 mg/kg/injection, schedule: Q01DX001 (ip), vehicle: saline): 23 % of control and 86 % of control

Structure (SMILES): COc1cc2c(c3c1c(=O)c1ccccc1n3C)C=CC(C)(C)O2
- T/C (dose: 16.0 mg/kg/injection, schedule: Q01DX010 (ip), vehicle: Klucel (hydroxypropylcellulose) (HPC)): 106 % of control
- T/C (dose: 31.25 mg/kg/injection, schedule: Q01DX010 (ip), vehicle: Klucel (hydroxypropylcellulose) (HPC)): 103 % of control
- T/C (dose: 36.0 mg/kg/injection, schedule: Q03HX024 (ip), vehicle: Klucel (hydroxypropylcellulose) (HPC)): 120 % of control
- T/C (dose: 62.5 mg/kg/injection, schedule: Q01DX010 (ip), vehicle: Klucel (hydroxypropylcellulose) (HPC)): 122 % of control
- T/C (dose: 62.5 mg/kg/injection, schedule: Q03HX024 (ip), vehicle: Klucel (hydroxypropylcellulose) (HPC)): 115 % of control
- T/C (dose: 125.0 mg/kg/injection, schedule: Q03HX024 (ip), vehicle: Klucel (hydroxypropylcellulose) (HPC)): 115 % of control
- T/C (dose: 360.0 mg/kg/injection, schedule: Q04DX003 (ip), vehicle: Klucel (hydroxypropylcellulose) (HPC)): 122 % of control

Structure (SMILES): CCCCCCCCCCCCCCCC(=O)N(CCCN)CCCCCCCCCN(CCCN)C(=O)CCCCCCCCCCCCCCC
- T/C (dose: 12.5 mg/kg/injection, schedule: Q01DX009 (ip), vehicle: saline): 100 % of control
- T/C (dose: 25.0 mg/kg/injection, schedule: Q01DX009 (ip), vehicle: saline): 92 % of control
- T/C (dose: 50.0 mg/kg/injection, schedule: Q01DX009 (ip), vehicle: saline): 107 % of control
- T/C (dose: 50.0 mg/kg/injection, schedule: Q04DX003 (ip), vehicle: other): 95 % of control
- T/C (dose: 100.0 mg/kg/injection, schedule: Q01DX001 (ip), vehicle: saline): 108 % of control
- T/C (dose: 100.0 mg/kg/injection, schedule: Q04DX003 (ip), vehicle: other): 95 % of control

Structure (SMILES): CCOC(=O)N(CC)c1ccccc1
- T/C (dose: 100.0 mg/kg/injection, schedule: Q01DX001 (ip), vehicle: Klucel (hydroxypropylcellulose) (HPC)): 109 % of control
- T/C (dose: 100.0 mg/kg/injection, schedule: Q04DX003 (ip), vehicle: Klucel (hydroxypropylcellulose) (HPC)): 113 % of control
- T/C (dose: 200.0 mg/kg/injection, schedule: Q01DX001 (ip), vehicle: Klucel (hydroxypropylcellulose) (HPC)): 111 % of control
- T/C (dose: 200.0 mg/kg/injection, schedule: Q04DX003 (ip), vehicle: Klucel (hydroxypropylcellulose) (HPC)): 94 % of control
- T/C (dose: 400.0 mg/kg/injection, schedule: Q01DX001 (ip), vehicle: Klucel (hydroxypropylcellulose) (HPC)): 100 % of control
- T/C (dose: 400.0 mg/kg/injection, schedule: Q04DX003 (ip), vehicle: Klucel (hydroxypropylcellulose) (HPC)): 98 % of control
